For orientation: IC50 means the midpoint of a concentration-inhibition curve.

A value given as a limit tells only on which side of the number the result lay.

6 molecules from PMC8306930, “A Comparative Analysis of the In Vitro Anticancer Activity of Iridium(III) {η^5-C5Me4R} Complexes with Variable R Groups” (International Journal of Molecular Sciences, 2021) can be followed below.

The subject of data set [1] is B16 mouse melanoma cells. As to the kind of experiment: MTT viability assay, B16. The class given is cell-based. The following applies: B16, 72 h exposure, mean ± SD. From the text:
(§1) The rat astrocytoma C6 cell line and murine melanoma B16 cell line were kindly gifted by Dr. L. Harhaji–Trajkovic, Institute for Biological Research “Sinisa Stankovic”—National Institute of Republic of Serbia (IBISS), and from Dr. Sinisa Radulovic (Institute for Oncology and Radiology of Serbia), respectively. Human colorectal (SW620 and HCT116), breast (MCF-7), and ovarian (A2780) cancer cell lines and non-malignant fibroblast cell line (MRC5) were purchased from the American Type Culture Collection (ATCC, Manassas, Virginia, USA). […] For viability assays, cells were seeded in listed densities/well: B16 and C6: 3 × 10^3; SW620: 9 × 10^3; A2780 and HCT116: 5 × 10^3; MCF-7: 8 × 10^3 and MRC5: 7 × 10^3. For flow cytometry, A2780 cells were seeded at 2 × 10^5 density/well in 6-well plates. Peritoneal macrophages were collected from the peritoneal cavity of C57BL/6 mice from the animal facility of IBISS by cavity lavage with ice-cold PBS. […] Macrophages were counted, seeded at 2 × 10^5 cells/well in 96-well plates for viability assay, and then left for 2 h to adhere. Before treatment, non-adherent cells were removed. The handling of animals and protocol for obtaining macrophages is in the agreement with the rules of the European Union and approved by the Institutional Animal Care and Use Committee at IBISS (No. 02-09/16).
(§2) Stock solutions of 1b, 1c, 1d, and 1e were prepared in ethanol at concentration of 20 mM and kept at −20 °C, while 10 mM stock solution of cisplatin was prepared in DMF just before the usage. Desired final concentrations were obtained by dilution in culture medium.
(§3) Cells were treated with various concentrations (up to 50 or 100 µM) of the above-mentioned complexes for 72 h. For the detection of mitochondrial respiration, cells were cultivated in the presence of MTT staining solution (0.5 mg/mL) for approximately 1 h at 37 °C. The dye was then discarded, and the formed formazan crystals (purple) were dissolved in DMSO. For an evaluation of viable attached cells, cells were fixed with 4% PFA for 10 min at room temperature, and subsequently stained for 15 min with 0.02% CV solution. […] The absorbance was measured with an automated microplate reader at 540 nm, with a reference wavelength of 670 nm. The IC50 values were calculated using a four-parameter logistic function and presented as mean ± SD from three independent experiments.

For data set [2], the system named is B16 mouse melanoma cells. The data set can be described thus: CV (crystal violet) viability assay, B16. The format is cell-based. The following applies: B16, 72 h exposure, mean ± SD.
Excerpt: as §1, §2, §3

Data set [3] has as its system SW620 human colorectal adenocarcinoma cells. As to the kind of experiment: MTT viability assay, SW620. The format is cell-based. The following applies: SW620, 72 h exposure, mean ± SD.
Excerpt: as §1, §2, §3
A general note: Tetrazolium assays rely on reduction of a dye to a coloured formazan, in cell work by metabolically active cells.

For data set [4] the test system is unchanged. As to the kind of experiment: CV viability assay, SW620. The format is cell-based. The following applies: SW620, 72 h exposure, mean ± SD.
Excerpt: as §1, §2, §3

Data set [5] has as its system C6 rat glioma cells. The data set can be described thus: MTT viability assay, C6. The format is cell-based. As to conditions: C6, 72 h exposure, mean ± SD.
Excerpt: as §1, §2, §3

In data set [6] the test system is C6 rat glioma cells. The data set can be described thus: CV viability assay, C6. As to conditions: C6, 72 h exposure, mean ± SD. The format is cell-based.
Excerpt: as §1, §2, §3

The test system of data set [7] is MCF-7 human breast cancer cells. The data set can be described thus: MTT viability assay, MCF-7. The class given is cell-based. As to conditions: MCF-7, 72 h exposure, mean ± SD.
Excerpt: as §1, §2, §3

Data set [8] shares this test system. The data set can be described thus: CV viability assay, MCF-7. The following applies: MCF-7, 72 h exposure, mean ± SD. The class given is cell-based.
Excerpt: as §1, §2, §3

The subject of data set [9] is HCT116 human colorectal carcinoma cells. The data set can be described thus: MTT viability assay, HCT116. The class given is cell-based. The following applies: HCT116, 72 h exposure, mean ± SD.
Excerpt: as §1, §2, §3

For data set [10] the test system is unchanged. The data set can be described thus: CV viability assay, HCT116. As to conditions: HCT116, 72 h exposure, mean ± SD. The format is cell-based.
Excerpt: as §1, §2, §3

Data set [11] concerns A2780 human ovarian cancer cells. As to the kind of experiment: MTT viability assay, A2780. The format is cell-based. The following applies: A2780, 72 h exposure, mean ± SD.
Excerpt: as §1, §2, §3

For data set [12] the test system is unchanged. As to the kind of experiment: CV viability assay, A2780. The format is cell-based. The following applies: A2780, 72 h exposure, mean ± SD.
Excerpt: as §1, §2, §3

Data set [13] concerns MRC5 human fibroblast cells. The data set can be described thus: MTT viability assay, MRC5. The format is cell-based. The following applies: MRC5, 72 h exposure, mean ± SD.
Excerpt: as §1, §2, §3

Data set [14] relates to MRC5 human fibroblast cells. The data set can be described thus: CV viability assay, MRC5. The class given is cell-based. As to conditions: MRC5, 72 h exposure, mean ± SD.
Excerpt: as §1, §2, §3

A short description of data set [15]: Stability in D2O mixtures by 1H NMR. The following applies: for Variation of 1H NMR spectra on storage: acetone-d6/D2O 2:1 (1b,d) or methanol-d4/D2O 2:1 (1c), 72 h at 37 °C, progressive precipitation. The class given is physicochemical. The method, then: Complexes were dissolved in acetone-d6/D2O 2:1 (1b,d), DMSO-d6/D2O 2:1 (2a–d and 3), or methanol-d4/D2O 2:1 (1c) ([Ir] ≈ 10^−3 mol L^−1), then dimethyl sulfone (0.05 mL, 0.164 mmol) was added as internal standard. The mixtures were filtered through a celite pad, and the filtrated solutions were analyzed by ^1H NMR spectroscopy.
The solutions were then stored for 72 h at 37 °C, and new NMR analyses were subsequently performed.

The subject of data set [16] is panel of six human and rodent cancer cell lines and MRC5. The data set can be described thus: Cytotoxic activity over the whole cell line panel (MTT and CV). As to conditions: 72 h; for Cytotoxic activity in words: all investigated cell lines. The format is cell-based. The method, then:
Cells were treated with various concentrations (up to 50 or 100 µM) of the above-mentioned complexes for 72 h. For the detection of mitochondrial respiration, cells were cultivated in the presence of MTT staining solution (0.5 mg/mL) for approximately 1 h at 37 °C. The dye was then discarded, and the formed formazan crystals (purple) were dissolved in DMSO. For an evaluation of viable attached cells, cells were fixed with 4% PFA for 10 min at room temperature, and subsequently stained for 15 min with 0.02% CV solution. Cells were then washed with tap water, dried in air, and the CV dye was dissolved in 33% acetic acid. The absorbance was measured with an automated microplate reader at 540 nm, with a reference wavelength of 670 nm. The IC50 values were calculated using a four-parameter logistic function and presented as mean ± SD from three independent experiments.

Take `CCC[c-]1c(C)c(C)c(C)c1C.CCC[c-]1c(C)c(C)c(C)c1C.[Cl-].[Cl-].[Cl-].[Cl-].[Ir+3].[Ir+3]` [Complex 1c]: the IC50 with B16 mouse melanoma cells [1] was 28 ± 4 µM; in the data set with B16 mouse melanoma cells [2], 44 ± 8 µM; in data set [3], 27 ± 2 µM; in data set [4] it was 45 ± 8 µM; with C6 rat glioma cells [5], 27 ± 3 µM; in the data set on C6 rat glioma cells [6] it was 54 ± 5 µM. Further, the half-inhibitory concentration (IC50) in [7] came to 28 ± 5 µM; in data set [8], 55 ± 8 µM; in data set [9] it was 30 ± 4 µM; in data set [10] it was 38 ± 3 µM; in [11], 13 ± 1 µM; in [12], 39 ± 7 µM. In addition, the IC50 in data set [13] is 36 ± 2 µM; in data set [14], above 50 µM. The “Variation of 1H NMR spectra on storage” value in data set [15] is recorded as “no significant variations”. In addition, the “Cytotoxic activity in words” value in data set [16] was “moderate cytotoxicity”.
As to `CC1=C(C)[C](c2ccc(F)cc2)([Ir]([Cl])[Cl])C(C)=C1C.CC1=C(C)[C](c2ccc(F)cc2)([Ir]([Cl])[Cl])C(C)=C1C` [Complex 1d], the IC50 in the data set on B16 mouse melanoma cells [1] worked out at 20.4 ± 0.1 µM; in the data set on B16 mouse melanoma cells [2], 28.1 ± 0.1 µM; in data set [3] it was 8 ± 2 µM; in [4] it was 18.5 ± 0.4 µM; with C6 rat glioma cells [5], 34 ± 2 µM; in the data set with C6 rat glioma cells [6], 49 ± 1 µM. In addition, the IC50 in data set [7] came to 9.2 ± 0.5 µM; in [8], 30 ± 0.4 µM; in data set [9], 8.1 ± 0.7 µM; in [10], 14.5 ± 1.5 µM; in [11], 16 ± 0.3 µM; in [12], 20.2 ± 0.3 µM. For the same molecule, the values for the half-inhibitory concentration (IC50) in data set [13] and in [14] were 19.1 ± 0.2 µM and 22.2 ± 0.1 µM, respectively. Besides, the “Variation of 1H NMR spectra on storage” value in data set [15] is recorded as “no significant variations”. Besides, the “Cytotoxic activity in words” value in data set [16] was “moderate cytotoxicity”.
As for `N.N.[Cl][Pt][Cl]` [Cisplatin, cisplatin, reference compound], the IC50 in the data set with B16 mouse melanoma cells [1] is 5.6 ± 0.2 µM; with B16 mouse melanoma cells [2] it was 11.6 ± 0.3 µM; in [3], 11.6 ± 0.1 µM; in data set [4] it was 11 ± 3 µM; in the data set with C6 rat glioma cells [5], 0.6 ± 0.2 µM; in the data set on C6 rat glioma cells [6], 1.2 ± 0.1 µM. Further, the IC50 was found to be 0.8 ± 0.2 µM in [7]; 1.2 ± 0.3 µM in [8]; 1.5 ± 0.1 µM in data set [9]; 8 ± 0.7 µM in data set [10]; 1.9 ± 0.2 µM in [11]; 3.8 ± 0.5 µM in [12]. The concentration for half-maximal inhibition (IC50) turned out to be 0.6 ± 0.2 µM in data set [13] and 0.8 ± 0.1 µM in [14].
Consider `CC1=C(C)[C](c2ccc(O)cc2)([Ir]([Cl])[Cl])C(C)=C1C.CC1=C(C)[C](c2ccc(O)cc2)([Ir]([Cl])[Cl])C(C)=C1C` [Complex 1e], for which the half-maximal inhibitory concentration (IC50) in the data set on B16 mouse melanoma cells [1] is above 100 µM; in the data set on B16 mouse melanoma cells [2], above 100 µM; in [3] it was above 100 µM; in data set [4], above 100 µM; in the data set with C6 rat glioma cells [5] it was 90 ± 14 µM; in the data set with C6 rat glioma cells [6], above 100 µM. The IC50 is 88 ± 12 µM in data set [7]; 94 ± 8 µM in data set [8]; 80 ± 3 µM in data set [9]; 79 ± 8 µM in [10]; above 100 µM in data set [13]; above 100 µM in data set [14]. Moreover, the IC50 in data set [16] (cell lines on which 1e is active, read-out: IC50 values, range over sensitive cell lines) was in the range of 80 to 90 µM. Also, in [15] (aqueous media with DMSO), the “Behaviour in aqueous media in the presence of DMSO” value is reported as “rapid conversion into 3”. Further, the “Cytotoxic activity in words” value in [16] was “substantially inactive”.
Take `CS(C)=O.Cc1c(C)c(C)[c-](-c2ccc(O)cc2)c1C.[Cl][Ir+][Cl]` [Complex 3, (4-(2,3,4,5-tetramethylcyclopenta-1,4-dien-1-yl)phenol)dimethylsulfoxide iridium(III)dichloride]: the 50% inhibitory concentration (IC50) (with B16 mouse melanoma cells [1]; with B16 mouse melanoma cells [2]; in [3]; in [4]; in the data set on C6 rat glioma cells [5]; in the data set on C6 rat glioma cells [6]) was above 100 µM each time. Also, the 50% inhibitory concentration (IC50) in data set [7], in data set [8], in data set [9], in [10], in [13] and in [14] was above 100 µM throughout. The “Fraction of unaltered compound” value in data set [15] (DMSO-d6/D2O 2:1, 72 h at 37 °C, 1H NMR, dimethyl sulfone standard) is 98%. Further, the “Cytotoxic activity in words” value in data set [16] was “inactive”.
In the case of `Cc1[cH-]c(C)c(C)c1C.Cc1[cH-]c(C)c(C)c1C.[Cl-].[Cl-].[Cl-].[Cl-].[Ir+3].[Ir+3]` [Complex 1b], the IC50 (in the data set with B16 mouse melanoma cells [1]; in the data set on B16 mouse melanoma cells [2]; in data set [3]; in data set [4]; with C6 rat glioma cells [5]; with C6 rat glioma cells [6]) was above 50 µM in each case. Besides, the IC50 in data set [7], in data set [8], in [9], in [10], in [11] and in data set [12] was above 50 µM each time. In addition, the half-maximal inhibitory concentration (IC50) in data set [13] and in data set [14] was above 50 µM in each case. Moreover, the “Variation of 1H NMR spectra on storage” value in data set [15] is listed as “no significant variations”. Moreover, in [16], the “Cytotoxic activity in words” value is “substantially inactive”.
